Measured values published in ChEMBL document CHEMBL1759896, “Asymmetric total synthesis of (+)- and (-)-clusianone and (+)- and (-)-clusianone methyl enol ether via ACC alkylation and evaluation of their anti-HIV activity” (Bioorg Med Chem Lett, 2011).
Calls of active or inactive are those of the source. The rule behind the calls is not given here.

Tests used:
Format in all cases: functional, organism-based
[1] = system: Human immunodeficiency virus 1; test: Antiviral activity against HIV1 Env-pseudovirus infected in mouse 3T3.T4.CCR5 cells after 2 days by luciferase assay
[2] = system: Human immunodeficiency virus 1; test: Antiviral activity against HIV1 Env-pseudovirus infected in human Jurkat E6-1 cells after 2 days by luciferase assay; conditions: for IC50: Human immunodeficiency virus 1, Jurkat, 48 h
[3] = system: Human immunodeficiency virus 1; test: Antiviral activity against HIV1 MN infected in human C8166 cells; conditions: Human immunodeficiency virus 1, MN

## COC1=C(C(=O)c2ccccc2)C(=O)[C@]2(CC=C(C)C)C[C@H](CC=C(C)C)C(C)(C)C1(CC=C(C)C)C2=O
[1]; 3t3.t4.ccr5
  IC50: Not Active

## Cc1cn([C@H]2C[C@H](N=[N+]=[N-])[C@@H](CO)O2)c(=O)[nH]c1=O [ZIDOVUDINE]
[2]
  IC50: 120 nM

## CC(C)=CC[C@H]1C[C@]2(CC=C(C)C)C(=O)[C@@](CC=C(C)C)(C(=O)C(C(=O)c3ccccc3)=C2O)C1(C)C (stereo in doubt; 2) [6-EPI-CLUSIANONE]
[1]; 3t3.t4.ccr5, read-out: IC50
  IC50: 1130 nM

## CC(C)=CC[C@H]1C[C@]2(CC=C(C)C)C(=O)[C@@](CC=C(C)C)(C(=O)C(C(=O)c3ccccc3)=C2O)C1(C)C (stereo in doubt; 2)
[2]
  Activity: Active

## CC(C)=CC[C@H]1C[C@]2(CC=C(C)C)C(=O)[C@@](CC=C(C)C)(C(=O)C(C(=O)c3ccccc3)=C2O)C1(C)C (stereo in doubt; 1)
[2]
  Activity: Active

## CC(C)=CC[C@H]1C[C@]2(CC=C(C)C)C(=O)[C@@](CC=C(C)C)(C(=O)C(C(=O)c3ccccc3)=C2O)C1(C)C (stereo in doubt; 1) [6-EPI-CLUSIANONE]
[1]; Human immunodeficiency virus 1, 3T3.T4.CCR5, 48 h, read-out: IC50
  IC50: 1530 nM
[3]
  EC50: 20 nM

## Cc1ccnc2c1NC(=O)c1cccnc1N2C1CC1 [NEVIRAPINE]
[2]
  IC50: 40 nM
